# Publication PMC5433008 (BMC Neuroscience, 2017)
# Tested on: NMDA-evoked currents in cultured rat embryonic hippocampal neurons (NMDAr)
# Conditions: 500 µM
sequence,measurement,value
TKRSSRAFRE [EAR7],inhibitory action on NMDA-evoked currents (control peptide),No inhibitory action
